Broadly, the melting point is the temperature of the solid-liquid transition.

Molecules are shown by their SMILES. Counter-ions that a name gives are not always drawn.

In turn, `c1coc(-c2nc(N3CCN4CCC3CC4)no2)c1` (as salt: HBr) showed a melting point of 249 to 251 °C.

Consider `c1cncc(-c2nc(N3CCN4CCC3CC4)no2)c1` (as salt: HBr), for which the melting point was in the range of 260 to 264 °C.

Turning to `c1cc(-c2nc(N3CCN4CCC3CC4)no2)ccn1` (as salt: HBr), the melting point is 269 to 272 °C.

For the compound `c1ccc2c(-c3nc(N4CCN5CCC4CC5)no3)cccc2c1` (as salt: HBr), the melting point is 256 to 258 °C.

For the compound `C1CNC(c2nc(N3CCN4CCC3CC4)no2)CN1` (stereo not drawn) (as salt: HBr), the melting point lay in the range of 247 to 248 °C.

In the case of `c1ccc2sc(-c3nc(N4CCN5CCC4CC5)no3)cc2c1` (as salt: HBr), the melting point is 258 to 260 °C.

Values taken from patent US7022697B2, “4-(Oxadiazol-3-yl)-1,4-diazabicyclo[3.2.2]-nonane derivatives, preparation and therapeutic use thereof” (Sanofi-aventis, priority 2001, dated 2006).
